Measured values reported in publication PMC12366525, “Characterization of allosteric modulators that disrupt androgen receptor co-activator protein-protein interactions to alter transactivation–Drug leads for metastatic castration resistant prostate cancer” (SLAS discovery : advancing life sciences R & D, 2023).
Like-named read-outs stand apart in the source and are kept apart here.

Legend:
Format in all cases: cell-based
[1] = PC-3-ARV7-GFP viability counter screen; conditions: human, PC3-AR-V7-GFP cells; cytotoxicity counter screen; read-out: PC-3-ARV7-GFP viability CS GI50
AR-LBD and SRC1 = target: T1, AR-LBD and SRC1 (Homo sapiens, UniProt P10275); assay: SRC1 mammalian 2-hybrid (M2H) assay; conditions: HEK 293 cells; 25 nM DHT; 27 h compound exposure; read-out: M2H AR-SRC1 CoA Recruitment IC50
T1 construct: AR-LBD amino acids 658–919 expressed as a fusion protein with Gal4-DBD; expressed in transfected cells; host or cells: HEK 293
T1 sequence (P10275 658-919): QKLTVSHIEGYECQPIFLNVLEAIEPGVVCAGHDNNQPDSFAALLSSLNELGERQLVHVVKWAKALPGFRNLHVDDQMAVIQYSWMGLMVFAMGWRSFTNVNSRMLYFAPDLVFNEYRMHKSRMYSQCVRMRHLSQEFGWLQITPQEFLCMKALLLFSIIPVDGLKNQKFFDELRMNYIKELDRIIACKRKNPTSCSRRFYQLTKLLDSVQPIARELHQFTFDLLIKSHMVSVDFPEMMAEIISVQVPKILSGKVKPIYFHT
Source text: (§1) The 5xGAL4-TATA-luciferase reporter plasmid was a gift from Dr. Richard Maurer from the Oregon Health and Science University, and constructs pGAL4-hAR-658–919 (AR-LBD amino acids 658–919 expressed as a fusion protein with Gal4-DBD), pVP16-SRC1 (full--length SRC1 expressed as a fusion with VP16 activation domain) and pVP16-Empty vector were kindly provided to us by Dr. Elizabeth Wilson, from UNC Chapel Hill. pVP16-TIF2 was generated as described previously. HEK 293 cells were transiently co-transfected with 5 ng of pGal4-AR-LBD, 10 ng of either pVP16-TIF2 or pVP16-SRC1, and 20 ng of the 5xGal4-TATA-Luc reporter as described previously. HEK 293 cells were bulk co-transfected with the three plasmids that had been individually incubated with Fugene 6 at a 3:1 ratio for 25 min at room temperature (RT) in serum free media (SFM) and then combined with HEK 293 cells that were suspended in DMEM (Cellgro10013CV) with 2 mM L-glutamine (Invitrogen) that was supplemented with 10% fetal bovine serum, and 5000 cells in a volume of 40 μL were seeded into the wells of white opaque 384-well assay plates (Greiner Bio-one, #781080) and cultured overnight at 37 °C, 5% CO2, and 95% humidity. […] 25 μL of BrightGlo® reagent was added to the plate and the relative luminescence units (RLUs) were captured on a SpectraMax M5e microtiter plate reader (Molecular Devices, LLC, San Jose, CA).

AR-LBD and TIF2 = target: T2, AR-LBD and TIF2 (Homo sapiens, UniProt P10275); assay: TIF2 mammalian 2-hybrid (M2H) assay; conditions: for IC50: HEK 293 cells, 25 nM DHT, 27 h compound exposure, read-out: M2H AR-TIF2 CoA Recruitment IC50
T2 construct: AR-LBD amino acids 658–919 expressed as a fusion protein with Gal4-DBD; expressed in transfected cells; host or cells: HEK 293
T2 sequence (P10275 658-919): T1 sequence (P10275 658-919)
Source text: as §1

LNCaP cells = assay: Prostate cancer cell line growth inhibition assay, LNCaP; conditions: 72 h, read-out: LNCap GI50 (AR+)
Protocol: The PC-3, DU-145, LNCaP, C4–2, and 22Rv1 PC cell line growth inhibition assays have been described previously. On day 1, each PC cell line was harvested, counted, and seeded into two 384-well assay plates, a time zero (T0) and a time 72 h (T72) plate. PC cell lines were all seeded at 1000 cells per well in 45 μL of tissue culture media in uncoated white clear bottom 384-well assay plates (VWR, # 82050–076) using a Matrix electronic multichannel pipette (Thermo Fisher Scientific, Waltham, MA) and cultured overnight at 37 °C, 5% CO2, and 95% humidity. On day 2, 25 μL of the Cell Titer Glo (CTG) (Promega Corporation, Madison, WI) detection reagent was dispensed into the wells of the T0 assay plate using a Matrix electronic multichannel pipette, and the RLUs were captured on the SpectraMax M5e (Molecular Devices LLC, Sunnyvale, CA) microtiter plate reader. Also on day 2, 5 μL of compounds were transferred into the test wells of the T72 384-well assay plates which were returned to the incubator for 72 h. Control wells received DMSO alone. On day 5, 25 μL of the CTG detection reagent was dispensed into the wells of the T72 assay plate using a Matrix electronic multichannel pipette, and the RLU’s were captured on the SpectraMax M5e microtiter plate reader platform.
In 384-well assays, DMSO minimum (n = 32) and maximum (n = 32) plate control wells were utilized to calculate signal-to-background ratios (S:B) and Z’-factor coefficient assay performance quality control statistics, and to normalize the signals of compound treated wells and to represent 0% and 100% respectively. For the 96-well AR-LBD H^3-DHT radioligand binding assay, eight minimum and maximum plate control wells were utilized to normalize the data. For the PC cell line growth inhibition assays we used the DMSO control data from the T0 and T72 assay plates to assess the dynamic range of the T0 to T72 cell growth, and to calculate S:B ratios and Z’-factor coefficient statistics for the assay signal window (T0 to T72). To normalize the 72 h compound exposure PC growth inhibition data, the signals from the compound treated wells were processed and expressed as% of the T72 DMSO plate controls. IC50 and GI50 values for each of the bioassays were calculated using Graph-Pad Prism 9 software to plot and fit data to curves using the Sigmoidal dose response variable slope equation Y = Bottom + [Top-Bottom]/ [1 + 10^^(LogEC50-X)*HillSlope].

IC50 (AR-LBD and SRC1)	IC50 (AR-LBD and TIF2)	GI50 (LNCaP cells; Homo sapiens, LNCaP)	GI50 (LNCaP cells)	CoA selectivity, lower IC50 for TIF2 than SRC1 (AR-LBD and TIF2; M2H assays)	SMILES	GI50 [1]
3.93 µM	5.44 µM	1.92 µM	–	–	Cc1c(-c2ccccc2F)[nH]c2ccc(CNC(=O)CCc3cnccn3)cc12 [S3–12]	> 100 µM
11.7 µM	18 µM	67.2 µM	–	–	CC(=O)NCCC(=O)NCc1ccc2[nH]c(-c3ccccc3F)c(C)c2c1 [S3–13]	> 100 µM
2.5 µM	2.43 µM	31.1 µM	–	–	Cc1c(-c2ccccc2F)[nH]c2ccc(CNC(=O)c3ccc(CO)o3)cc12 [S3–14]	> 100 µM
2.99 µM	3.32 µM	14 µM	–	–	Cc1c(-c2ccc(F)cc2)[nH]c2ccc(CNC(=O)c3ccc(CO)o3)cc12 [S3–15]	> 100 µM

The remaining lines, values behind:

SMILES	IC50 (AR-LBD and SRC1)	IC50 (AR-LBD and TIF2)	GI50 (LNCaP cells; Homo sapiens, LNCaP)	GI50 (LNCaP cells)	CoA selectivity, lower IC50 for TIF2 than SRC1 (AR-LBD and TIF2; M2H assays)	GI50 [1]
Cc1ccccc1-c1cc(O)c2c(c1)CN(c1nc(C(N)=O)cs1)CCO2 [S1–1]	3.57 µM	5.77 µM	28.9 µM	–	–	> 100 µM
Cc1ccccc1-c1cc(O)c2c(c1)CN(c1nccs1)CCO2 [S1–3]	5.19 µM	7.46 µM	–	43.4 µM	–	–
Cc1nsc(NC(=O)N2CCC(Sc3ccccc3C)CC2)n1 [S2–6]	0.46 µM	0.08 µM	19.2 µM	–	~ 5 fold	> 100 µM
Cc1c(-c2ccccc2F)[nH]c2ccc(CNC(=O)CCc3cn[nH]c3)cc12 [S3–11]	4.79 µM	6.38 µM	7.41 µM	–	–	> 100 µM
